Assay results published in patent US20260218197A1, “EXTRACELLULAR VESICLE SECRETION REDUCING AGENT FOR REDUCING EXTRACELLULAR VESICLE SECRETION, AND USE OF THE SAME” (THEORIA SCIENCE INC., priority 2020, published 2026).

Key:
[1] = system: 3′ UTR of the human PSAT1 mRNA; experiment: Dual-Luciferase reporter assay with PSAT1 3′ UTR in HEK293 cells; type: cell-based; conditions: 48 hours after transfection
Procedure: Thus, the effect of miR-891b was examined using the wild-type PSAT1 gene in which the above-described 7-base region in the 3′ UTR is the wild-type sequence (SEQ ID NO: 3: AAGTTGC) and a mutant-type PSAT1 gene in which the above-described 7-base region in the 3′ UTR is a mutated sequence (SEQ ID NO: 4: TTCAACG). Specifically, the following experiment was performed. The wild-type PSAT1 gene or the mutant-type PSAT1 gene was subcloned into a plasmid vector psiCHECK2, and human embryonic kidney cells (HEK293 cells) were transfected with this recombinant vector together with miR-891b or the negative control miRNA using Lipofectamine 3000. 48 hours after the transfection, the luciferase activity of the transformants was quantified using a plate reader according to the operating procedure of a Dual-Luciferase Reporter Assay System.
The results obtained are shown in (D) of FIG. 3.

[2] = system: lung cancer cells A549; experiment: Amount of secreted EVs by the ExoScreen method; type: cell-based, human; conditions: A549 transformants, CMs and EV fractions, compared with transformants (NC)
Procedure: (§1) EV detection was performed using an AlphaLISA reagent (Perkin Elmer) composed of AlphaScreen streptavidin-coated donor beads (6760002), AlphaLISA unconjugated acceptor beads (6062011), and an AlphaLISA universal buffer (AL001F), a 96-well half-area white plate (6005560, Perkin Elmer), and a detection device EnSpire Alpha 2300 Mutilabel plate reader (Perkin Elmer). Specifically, the EV detection was performed as follows. Each well of the plate was filled with 5 μL of EVs or 10 μL of CM (cell culture supernatant), 10 μL of a 5 nmol/L biotinylated antibody solution prepared using the above-described buffer, and 10 μL of 50 µg/mL AlphaLISA acceptor bead-conjugated antibody. […] Next, luminescence in the wells of the plate was measured using the detection device with the excitation wavelength set to 680 nm and the emission detection wavelength set to 615 nm. […]
(§2) In a 6-well plate, 2 mL of the cancer cell suspension was seeded at 1.0×10^5 cells/well and incubated for 24 hours. […] 48 hours after the replacement, total RNA was extracted, and the expression of the gene of interest was measured by qPCR.
(§3) Colorectal cancer cells HCT116 and lung cancer cells A549 were each transfected with miR-891b. […] Then, according to the ExoScreen method described above, the amounts of the secreted EVs were measured by measuring the signal intensities. […]

[3] = system: colorectal cancer cells HCT116; experiment: Amount of secreted EVs by the ExoScreen method; type: cell-based, human; conditions: HCT116 transformants, CMs and EV fractions, compared with transformants (NC)
Procedure: as §1, §2, §3

[4] = system: lung cancer cells A549; experiment: CD63 immunofluorescence / coimmunostaining (intracellular EV accumulation); type: cell-based, human; conditions: A549 transformants
Procedure: (§4) Colorectal cancer cells HCT116 and lung cancer cells A549 were transfected with siRNA (siPSAT1) in the same manner as in the item (2) in Example A1, and EV biogenesis after PSAT1 silencing was examined. For the respective silenced transformants, CD63 and PSAT1 were examined by immunofluorescence.
(§5) Further, coimmunostaining of the EV marker CD63 and also an early endosome marker EEA1 or a late endosome marker Rab7 was conducted for the PSAT1-silenced transformants. As a result, no overlap was observed between EEA1 and CD63 in either the PSAT1-silenced transformants or the negative control transformants. […] On this account, the CD63 single-positive area was measured based on the intensity. […] This confirmed that EVs had accumulated in the cells.
(§6) Specifically, the test was performed in the following manner. Colorectal cancer cells HCT116 and lung cancer cells A549 were each seeded in a 6-well plate at 1.5×10^5 cells/well (Day 0), and incubated for 24 hours in a medium (DMEM with 10% FBS, 1×anti-anti medium). After the incubation (Day 1), the above-described medium was removed, and thereafter, a serine-deficient medium and an inhibitor solution were added to the wells. The inhibitor solution was prepared by dissolving NCT-503 in DMSO, and the concentration of the inhibitor per well was set to 2.5 μmol/L. Then, after another 48 hours of incubation (Day 3), the medium in the wells was collected and the cells in the wells were counted. As negative controls (NC), the test was performed in the same manner, except that DMSO was added instead of the inhibitor solution.
(§7) EVs accumulated in the cells were analyzed in the following manner. Specifically, the collected cells were immunostained, the CD63 single-positive area was measured based on the fluorescence intensity, and the fluorescence intensity measured in the area was divided by the number of nuclei to determine the amount of EVs accumulated in each cell. On the other hand, secreted EVs were collected from the collected medium and then subjected to the NTA. In the NTA, the amount of secreted EVs was determined as a relative value calculated assuming that the amount of the secreted EVs in the negative control was 1.

[5] = system: colorectal cancer cells HCT116; experiment: as above; type: cell-based, human; conditions: HCT116 transformants
Procedure: as §4, §5, §6, §7

[6] = system: PSAT1; experiment: PSAT1 gene (qPCR) and protein (Western blotting) expression in transformants; type: cell-based, human; conditions: HCT116 and A549 transformants
Procedure: In a 6-well plate, 2 mL of the cancer cell suspension was seeded at 1.0×10^5 cells/well and incubated for 24 hours. Thereafter, 10 nmol/L of the intended nucleic acid molecules were added thereto, and the cells were transfected with the nucleic acid molecules using a transfection reagent (product name: DharmaFECT Transfection Reagent 1). The nucleic acid molecules used were the above-described miRNA and the above-described siRNA. After the incubation for 24 hours, the medium was replaced with the above-described advanced RPMI 1640 medium or advanced DMEM medium containing the antibiotic-antimycotic agent and 2 mmol/L-glutamine (Gibco). 48 hours after the replacement, total RNA was extracted, and the expression of the gene of interest was measured by qPCR. […]
First, expression of the PSAT1 gene was detected in the above-described transformants (miR-891b) and the control transformants (NC) therefor. Then, assuming that the expression levels in the transformants (NC) were 1, the relative values of the expression levels in the respective transformants (miR-891b) were determined. […] Also, for the transformants (miR-891b) and the control transformants (NC), the PSAT1 protein expression was detected by Western blotting. As a control, β-actin was also detected. […]

miR-891b: nucleic acid molecule miRNA, SEQ ID NO: 1: GCAACUUACCUGAGUCAUUGA (Product No. 4464066, Ambion) (listed as RNA, chemistry not given here)
PSAT1 expression level (relative luciferase activity) ([1]; mutated sequence in miR-891b recognition region): did not reduce
PSAT1 expression level (relative luciferase activity) ([1]; wild-type PSAT1 3′ UTR sequence): significantly reduced
relative value of the amount of secreted EVs (ExoScreen method) [2]: significantly lower
relative value of the amount of secreted EVs (ExoScreen method) [3]: significantly lower
CD63 (EV marker) in cytoplasm by immunofluorescence [4]: accumulation of CD63
CD63 (EV marker) in cytoplasm by immunofluorescence [5]: accumulation of CD63
PSAT1 protein expression ([6]; Western blotting, vs transformants (NC)): reduced
PSAT1 gene expression ([6]; relative to transformants (NC)): reduced
